According to ChEMBL document CHEMBL1201862, “PubChem BioAssay data set” (2004):
Active and inactive are the calls of the source.

Legend:
Cytochrome P450 3A4 = Cytochrome P450 3A4 (Homo sapiens, UniProt P08684); settings: Potency;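 also: confirmatory qHTS run detecting inhibitors and substrates of CYP3A4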
Nonstructural protein 1 = Nonstructural protein 1 (Influenza A virus, UniProt Q194T2); type: functional, Influenza A virus (A/California/07/2009(H1N1))
[1] = molecular target: T1, Heat shock factor protein 1 (Mus musculus, UniProt P38532); experiment: enhancement of HSF1-driven luciferase signal – cell-based, NIH3T3, luminescence, dose retest, confirmation (AID 435004); type: functional;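 also: stress induced by proteasome inhibitor MG132 added 30 min after compound; luciferase reporter driven by HSF1 response element in NIH3T3 cells; actives raise luminescence as potentiators of the MG132 stress response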
T1 sequence (P38532 whole entry): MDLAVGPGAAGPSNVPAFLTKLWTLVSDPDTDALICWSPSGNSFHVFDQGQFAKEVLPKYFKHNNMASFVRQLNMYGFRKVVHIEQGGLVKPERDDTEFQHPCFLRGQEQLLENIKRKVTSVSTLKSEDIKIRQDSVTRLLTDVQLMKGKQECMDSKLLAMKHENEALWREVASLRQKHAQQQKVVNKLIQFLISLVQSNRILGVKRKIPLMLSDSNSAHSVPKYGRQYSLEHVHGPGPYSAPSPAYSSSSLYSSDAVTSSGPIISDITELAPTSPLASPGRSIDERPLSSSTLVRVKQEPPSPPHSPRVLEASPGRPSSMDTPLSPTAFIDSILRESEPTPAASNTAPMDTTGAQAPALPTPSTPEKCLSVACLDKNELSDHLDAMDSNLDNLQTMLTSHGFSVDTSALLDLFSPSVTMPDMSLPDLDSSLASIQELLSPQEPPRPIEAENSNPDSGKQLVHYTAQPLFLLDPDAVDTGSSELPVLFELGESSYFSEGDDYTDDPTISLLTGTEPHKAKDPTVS

Protein skinhead-1 = molecular target: T2, Protein skinhead-1 (Caenorhabditis elegans, UniProt P34707); type: functional
T2 sequence (P34707 whole entry): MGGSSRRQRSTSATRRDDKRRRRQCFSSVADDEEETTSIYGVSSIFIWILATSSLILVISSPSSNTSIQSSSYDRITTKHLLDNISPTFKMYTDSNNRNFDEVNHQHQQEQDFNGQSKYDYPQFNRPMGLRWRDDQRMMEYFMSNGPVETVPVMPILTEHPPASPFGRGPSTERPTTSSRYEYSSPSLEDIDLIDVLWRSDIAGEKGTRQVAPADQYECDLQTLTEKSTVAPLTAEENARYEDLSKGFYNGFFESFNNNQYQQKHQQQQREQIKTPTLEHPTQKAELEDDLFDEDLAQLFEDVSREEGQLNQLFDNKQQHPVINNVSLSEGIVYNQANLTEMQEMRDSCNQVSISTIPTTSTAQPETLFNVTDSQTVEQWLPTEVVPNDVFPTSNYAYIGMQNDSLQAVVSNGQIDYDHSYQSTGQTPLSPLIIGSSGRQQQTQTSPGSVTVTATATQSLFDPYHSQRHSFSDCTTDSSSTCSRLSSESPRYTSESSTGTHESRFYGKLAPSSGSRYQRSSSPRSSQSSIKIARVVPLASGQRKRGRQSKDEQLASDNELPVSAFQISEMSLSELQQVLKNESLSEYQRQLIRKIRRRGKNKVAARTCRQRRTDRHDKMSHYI

[2] = NIH-3T3 fibroblast cytotoxicity, dose response, cytotoxicity control, cell-based, fluorescence, Alamar Blue, secondary assay (AID 2327); type: functional;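 also: NIH-3T3 mouse fibroblasts cultured with fluconazole at 8 µg/mL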
[3] = test system: Streptococcus sp. 'group A'; experiment: Streptococcus pyogenes SK(-)GAS viability under kanamycin – luminescence, BacTiterGlo, confirmation, counter-screen for streptokinase expression inhibitor project, dose response (AID 1900); type: functional, organism-based
Streptokinase A = molecular target: T3, Streptokinase A (Streptococcus pyogenes serotype M1, UniProt P10520); experiment: viability-normalized secreted streptokinase activity reduction – plasminogen activation absorbance, OD405, dose response (AID 1914); type: functional, Streptococcus pyogenes M1 GAS;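 also: secreted streptokinase activity via plasminogen activation per viability signal from cell pellet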
T3 sequence (P10520 whole entry): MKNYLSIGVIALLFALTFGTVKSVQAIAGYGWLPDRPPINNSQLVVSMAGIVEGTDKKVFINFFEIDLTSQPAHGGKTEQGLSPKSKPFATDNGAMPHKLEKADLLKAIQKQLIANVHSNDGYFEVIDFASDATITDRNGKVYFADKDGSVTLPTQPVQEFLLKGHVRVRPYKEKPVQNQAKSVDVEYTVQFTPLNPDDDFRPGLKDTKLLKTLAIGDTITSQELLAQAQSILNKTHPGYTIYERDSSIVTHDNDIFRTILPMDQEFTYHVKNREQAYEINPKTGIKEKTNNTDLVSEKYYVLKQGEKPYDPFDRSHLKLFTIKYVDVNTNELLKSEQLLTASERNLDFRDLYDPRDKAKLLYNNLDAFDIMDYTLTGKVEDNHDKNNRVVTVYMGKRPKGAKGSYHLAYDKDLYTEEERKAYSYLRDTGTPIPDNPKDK

[4] = fluconazole-exposed Candida albicans growth modulators – fluorescence, retest, confirmation (AID 2467); type: functional, cell-based
Streptococcus = experiment: GAS UMAA2166 growth inhibition – luminescence, BacTiterGlo, counter-screen for streptokinase expression inhibitor project, dose response (AID 1915); type: functional, organism-based;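 also: potency for reduction of bacterial viability or growth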
[5] = molecular target: T4, Ubiquitin-conjugating enzyme E2 N (Homo sapiens, UniProt P61088); type: functional;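 also: Dose-response confirmation in a TR-FRET assay detecting UBC13-driven polyubiquitin chain formation, inhibition measured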
T4 sequence (P61088 whole entry): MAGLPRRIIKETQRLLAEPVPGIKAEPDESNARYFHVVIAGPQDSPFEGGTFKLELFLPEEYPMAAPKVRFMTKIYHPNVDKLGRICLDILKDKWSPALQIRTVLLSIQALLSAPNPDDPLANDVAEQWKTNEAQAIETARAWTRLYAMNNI

[6] = molecular target: T5, Replicative DNA helicase DnaB (Mycobacterium tuberculosis, UniProt P9WMR3); experiment: DnaB intein splicing inhibitors, dose response, biochemical, cell-free fluorescence (AID 449749); type: functional
T5 sequence (P9WMR3 whole entry): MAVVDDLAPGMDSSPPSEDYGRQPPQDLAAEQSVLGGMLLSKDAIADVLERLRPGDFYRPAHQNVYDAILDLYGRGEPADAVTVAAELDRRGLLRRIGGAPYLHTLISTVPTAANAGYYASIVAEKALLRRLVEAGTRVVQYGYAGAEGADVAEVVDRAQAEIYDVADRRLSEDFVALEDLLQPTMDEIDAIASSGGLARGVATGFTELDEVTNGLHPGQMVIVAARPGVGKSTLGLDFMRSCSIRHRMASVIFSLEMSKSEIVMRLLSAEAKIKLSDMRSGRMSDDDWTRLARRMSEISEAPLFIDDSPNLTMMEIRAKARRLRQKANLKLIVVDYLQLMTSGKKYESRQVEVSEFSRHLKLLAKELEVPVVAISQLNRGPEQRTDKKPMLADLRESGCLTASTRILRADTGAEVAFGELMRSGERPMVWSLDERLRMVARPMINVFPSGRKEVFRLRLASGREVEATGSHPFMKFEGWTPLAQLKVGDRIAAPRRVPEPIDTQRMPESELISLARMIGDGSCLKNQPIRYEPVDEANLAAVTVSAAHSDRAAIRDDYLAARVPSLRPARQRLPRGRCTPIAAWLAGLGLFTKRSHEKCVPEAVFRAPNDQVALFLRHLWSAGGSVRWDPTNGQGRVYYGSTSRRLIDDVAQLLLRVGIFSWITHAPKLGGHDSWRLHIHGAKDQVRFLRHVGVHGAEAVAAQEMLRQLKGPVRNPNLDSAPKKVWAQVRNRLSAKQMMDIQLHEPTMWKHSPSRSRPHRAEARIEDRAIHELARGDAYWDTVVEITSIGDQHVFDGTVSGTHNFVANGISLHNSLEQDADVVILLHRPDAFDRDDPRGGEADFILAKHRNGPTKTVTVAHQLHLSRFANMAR

Protein RecA = molecular target: T6, Protein RecA (Mycobacterium tuberculosis, UniProt P9WHJ3); experiment: Fluorescence Cell-Free Homogeneous Dose Retest to Identify Inhibitors of RecA-Intein Splicing Activity. [Related pubchem assays (depositor defined):AID2097, AID2223, AID489010, AID492950]; type: functional
T6 sequence (P9WHJ3 whole entry): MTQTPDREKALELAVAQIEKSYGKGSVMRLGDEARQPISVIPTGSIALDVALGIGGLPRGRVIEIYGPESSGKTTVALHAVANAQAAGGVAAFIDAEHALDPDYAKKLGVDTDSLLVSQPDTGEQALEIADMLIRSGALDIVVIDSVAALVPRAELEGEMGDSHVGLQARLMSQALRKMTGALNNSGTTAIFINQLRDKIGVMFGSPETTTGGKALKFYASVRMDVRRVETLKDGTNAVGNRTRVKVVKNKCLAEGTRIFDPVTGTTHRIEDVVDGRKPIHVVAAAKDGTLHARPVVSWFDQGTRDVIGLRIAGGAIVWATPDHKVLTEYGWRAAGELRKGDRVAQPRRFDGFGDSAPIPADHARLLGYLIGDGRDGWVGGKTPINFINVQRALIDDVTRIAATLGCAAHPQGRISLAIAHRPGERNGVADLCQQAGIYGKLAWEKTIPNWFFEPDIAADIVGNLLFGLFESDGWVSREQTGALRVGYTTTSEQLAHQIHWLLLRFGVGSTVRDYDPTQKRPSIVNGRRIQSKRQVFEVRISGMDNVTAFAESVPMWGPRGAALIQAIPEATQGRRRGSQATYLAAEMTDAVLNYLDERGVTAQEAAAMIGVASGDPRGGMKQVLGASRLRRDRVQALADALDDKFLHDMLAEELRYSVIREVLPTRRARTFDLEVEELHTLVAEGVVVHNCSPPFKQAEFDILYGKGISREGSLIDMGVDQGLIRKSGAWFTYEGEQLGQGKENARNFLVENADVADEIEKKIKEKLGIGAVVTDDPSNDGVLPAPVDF

[7] = molecular target: T7, Rac GTPase-activating protein 1 (Homo sapiens, UniProt Q9H0H5); experiment: blockers of MgcRacGAP-driven Rac1 GTP hydrolysis – biochemical, ADP Hunter fluorescence, primary and confirmatory, confirmation (AID 624330); type: functional
T7 sequence (Q9H0H5 whole entry): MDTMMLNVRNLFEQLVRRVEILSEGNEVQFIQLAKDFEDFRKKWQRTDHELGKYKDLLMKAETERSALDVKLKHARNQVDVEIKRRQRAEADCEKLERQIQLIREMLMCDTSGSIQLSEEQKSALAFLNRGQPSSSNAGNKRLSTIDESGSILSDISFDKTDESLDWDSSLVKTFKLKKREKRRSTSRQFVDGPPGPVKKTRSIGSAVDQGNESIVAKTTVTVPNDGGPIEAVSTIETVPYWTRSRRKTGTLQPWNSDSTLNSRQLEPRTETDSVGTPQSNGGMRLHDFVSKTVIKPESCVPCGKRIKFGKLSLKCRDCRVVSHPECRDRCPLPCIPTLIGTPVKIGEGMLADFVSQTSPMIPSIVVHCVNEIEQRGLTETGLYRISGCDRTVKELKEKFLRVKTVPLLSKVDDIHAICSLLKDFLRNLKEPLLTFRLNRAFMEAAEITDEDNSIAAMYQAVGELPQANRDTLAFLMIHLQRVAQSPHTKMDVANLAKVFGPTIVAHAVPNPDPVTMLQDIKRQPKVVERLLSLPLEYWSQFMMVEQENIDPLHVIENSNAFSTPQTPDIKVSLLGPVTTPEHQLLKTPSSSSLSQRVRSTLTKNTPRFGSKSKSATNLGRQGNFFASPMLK

Sequence of Nonstructural protein 1 (Q194T2 whole entry): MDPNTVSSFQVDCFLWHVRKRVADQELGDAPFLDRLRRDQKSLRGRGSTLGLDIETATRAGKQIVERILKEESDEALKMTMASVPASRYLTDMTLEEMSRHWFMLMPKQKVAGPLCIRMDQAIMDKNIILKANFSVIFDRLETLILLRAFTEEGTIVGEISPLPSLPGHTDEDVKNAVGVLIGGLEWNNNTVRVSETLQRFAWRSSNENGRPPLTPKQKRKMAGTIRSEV
Sequence of Cytochrome P450 3A4 (P08684 whole entry): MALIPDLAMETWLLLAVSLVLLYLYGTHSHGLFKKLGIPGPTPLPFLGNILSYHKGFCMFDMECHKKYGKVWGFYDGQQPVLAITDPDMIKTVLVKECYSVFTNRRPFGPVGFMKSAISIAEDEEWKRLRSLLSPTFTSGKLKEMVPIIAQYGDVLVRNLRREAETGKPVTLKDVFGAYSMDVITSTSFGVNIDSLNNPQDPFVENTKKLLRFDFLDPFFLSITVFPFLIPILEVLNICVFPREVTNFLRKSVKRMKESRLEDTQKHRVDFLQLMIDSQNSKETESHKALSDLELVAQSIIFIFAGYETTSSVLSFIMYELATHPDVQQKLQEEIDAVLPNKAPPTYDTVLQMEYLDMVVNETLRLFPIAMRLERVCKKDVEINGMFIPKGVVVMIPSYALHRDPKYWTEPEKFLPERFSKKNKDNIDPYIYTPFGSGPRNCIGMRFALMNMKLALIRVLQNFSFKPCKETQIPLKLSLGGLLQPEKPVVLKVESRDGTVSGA

Row | Compound | AC50 (Cytochrome P450 3A4) | EC50 [1] | other results
1 | COCCNC(=O)[C@@]1(Cc2ccccc2)C=C[C@@H](C)N1C(C)=O | 20 µM (inconclusive) | – | –
2 | Cc1ccc(N)cc1[N+](=O)[O-] | 31.6 µM (inconclusive) | – | –
3 | COc1ccc(C(CCNCc2ccc(N(C)C)cc2)C(C)C)cc1 (centres undefined) | – | – | IC50 (Nonstructural protein 1): 39.1 µM (active)
4 | COc1cc(OC)c2c(c1C(CCN1CCOCC1)c1ccc(N(C)C)cc1)OC(=O)CC2c1ccc(N(C)C)cc1 (centres undefined) | – | – | IC50 (Nonstructural protein 1): 14.5 µM (active)
5 | Nc1cc(Cl)cc(Cl)c1 | 31.6 µM (inconclusive) | – | –
6 | CC1Cc2c(COc3ccccc3)nc3c(c2CO1)CN(CCOc1ccccc1)CC3 (centres undefined) | 3.98 µM (inconclusive) | – | –
7 | Cc1ccc(C)c(S(=O)(=O)N2CCCCC2CCNC(=O)C(=O)NCCc2ccco2)c1 (centres undefined) | – | > 260 µM (inactive) | –
8 | CN(Cc1cccc2cnccc12)C(=O)c1cc(COc2ccc(F)cc2F)on1 | – | > 260 µM (inactive) | –
9 | O=C(COC(=O)/C=C/c1cccc([N+](=O)[O-])c1)NCc1ccco1 | – | > 260 µM (inactive) | –
10 | COCCn1c(C)cc(C(=O)COC(=O)c2ccc(-n3nc(C)cc3C)cc2)c1C | – | > 260 µM (inactive) | –
11 | c1ccc(-c2ccc(SCc3cccnc3)nn2)nc1 | – | – | IC50 (Nonstructural protein 1): 5.07 µM (active)
12 | Nc1cc([N+](=O)[O-])ccc1C(=O)O | 10 µM (inconclusive) | – | –
13 | Cc1cc(OCC(=O)N(Cc2ccco2)C2CCS(=O)(=O)C2)cc(C)c1Cl (centres undefined) | – | > 260 µM (inactive) | –
14 | Nc1cccc2c1C(=O)c1ccc(Cl)cc1C2=O | – | – | IC50 (Nonstructural protein 1): 24.6 µM (active); IC50 (Protein skinhead-1): > 100 µM (inactive)
15 | CC1(C)CC(CCN)(Cc2ccccc2Cl)CCO1 (centres undefined) | – | > 260 µM (inactive) | –
16 | Cc1ncc(CO)c(/C=N/NC(=S)Nc2ccc(Cl)c(Cl)c2)c1O | – | – | EC50 [2]: 45.4 µM (inconclusive); EC50 [3]: 4.1 µM (active); EC50 (Streptokinase A): > 150 µM (not active); EC50 [4]: > 38 µM (not active); EC50 (Streptococcus): 91.4 µM (active); IC50 [5]: > 20 µM (inactive)
17 | COc1cc(/C=N/Nc2snc(SC)c2C#N)ccc1O | – | > 260 µM (inactive) | –
18 | CCOc1cccc(/C=N/NC(=S)NCCN2CCOCC2)c1O | – | – | IC50 (Nonstructural protein 1): 16.5 µM (active)
19 | Nc1nnnn1CC(=O)N/N=C/c1ccccn1 | – | > 260 µM (inactive) | –
20 | CCc1nnc(N/N=C/c2cc(Br)c(O)cc2O)n1N | – | – | IC50 (Nonstructural protein 1): 6.41 µM (active); AC50 [6]: > 380 µM (inactive); EC50 (Protein RecA): 9.31 µM (active); IC50 [7]: 66.2 µM (active)
21 | O=[N+]([O-])c1ccc2cn[nH]c2c1 | 12.6 µM (inconclusive) | – | –
22 | Cc1ccc(Cl)cc1N | 31.6 µM (inconclusive) | – | –
23 | Cc1cc(=O)oc2cc(O)c(O)cc12 [4-METHYLESCULETIN] | 15.8 µM (inconclusive) | – | –
24 | CC1=C(/C=C/C(C)=C/C=C/C(C)=C/CO)C(C)(C)CCC1 [RETINOL] | 15.8 µM (inconclusive) | – | –
25 | C[C@]12CCC(=O)C[C@@H]1CC[C@@H]1[C@@H]2CC[C@]2(C)[C@@H](O)CC[C@@H]12 [STANOLONE] | 15.8 µM (inconclusive) | – | –
